Measurements from patent publication US20140288044A1, “COMPOSITIONS AND THERAPEUTIC USES OF IKK-RELATED KINASE EPSILON AND TANKBINDING KINASE 1 INHIBITORS” (Alzheimer's Institute of America, Inc., priority 2011, published 2014).
Like-named read-outs stand apart in the source and are kept apart here.

Target: T1, IKKε (Homo sapiens, UniProt Q14164)
T1 construct: His-tag (in-house Sf9 preparation) or GST-tag (purchased Invitrogen preparation); these are alternatives, not both on one protein; host or cells: Sf9 cells
T1 sequence (Q14164 1-716): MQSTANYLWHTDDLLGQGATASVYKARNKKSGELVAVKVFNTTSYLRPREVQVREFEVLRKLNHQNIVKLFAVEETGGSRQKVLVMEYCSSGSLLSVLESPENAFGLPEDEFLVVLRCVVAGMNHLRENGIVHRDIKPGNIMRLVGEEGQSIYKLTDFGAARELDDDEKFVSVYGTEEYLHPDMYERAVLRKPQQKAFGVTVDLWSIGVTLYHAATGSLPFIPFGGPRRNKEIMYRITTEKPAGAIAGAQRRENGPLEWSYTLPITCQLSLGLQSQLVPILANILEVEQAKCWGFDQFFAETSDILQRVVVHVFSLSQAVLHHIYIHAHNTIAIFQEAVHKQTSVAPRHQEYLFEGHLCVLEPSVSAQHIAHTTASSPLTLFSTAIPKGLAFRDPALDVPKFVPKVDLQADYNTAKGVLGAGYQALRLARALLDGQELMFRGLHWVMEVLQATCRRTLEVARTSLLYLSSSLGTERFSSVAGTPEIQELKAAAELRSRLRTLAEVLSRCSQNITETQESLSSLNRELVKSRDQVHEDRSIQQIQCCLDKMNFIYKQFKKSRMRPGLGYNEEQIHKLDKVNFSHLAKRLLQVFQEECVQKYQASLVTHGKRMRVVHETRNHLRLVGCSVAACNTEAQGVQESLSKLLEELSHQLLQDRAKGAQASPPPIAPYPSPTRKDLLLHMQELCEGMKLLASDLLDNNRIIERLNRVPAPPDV
Assay: In-vitro IKKε kinase assay (radiolabelled ATP, filterplate)
Format: biochemical
Protocol: IKKε enzyme was produced as a His-tag fusion in Sf9 cells or purchased as a GST-tag fusion (Invitrogen, Carlsbad, Calif.). TBK1 enzyme was produced as a His-tag fusion in Sf9 cells. Kinase reactions were carried out in reaction buffer using myelin basic protein (Millipore, Ballerica, Mass.), casein or dephosphorylated casein (Sigma, St. Louis, Mo.) as substrate at an ATP concentration equal to twice the Km,ATP value for each enzyme, corresponding to 32 μM ATP for IKKε and 60 μM ATP for TBK1. Radiolabelled [γ^33]ATP (PerkinElmer, Waltham, Mass.) in the amount of […] (IKKe, “normal”) or 0.7 μCi (IKKε, “sensitized”) or 1.25 μCi (TBK1) was added to each assay. Final enzyme concentrations were 0.1 or 0.015 μg/ml (IKKε) and 0.1 or 0.02 μg/ml (TBK1) for the “normal” and “sensitized” assay, respectively, and “sensitized” assays were conducted using only dephosphorylated casein as substrate. Test compounds (or DMSO solvent as a control) were added prior to initiation of the reactions. Reactions were terminated after 30-45 minutes by adding 3% phosphoric acid. Terminated reactions were transferred to P-81 cellulose phosphate filterplates (Whatman, Inc., Piscataway, N.J.) and washed with 1% phosphoric acid on a vacuum apparatus. After air drying, scintillant (PerkinElmer, Waltham, Mass.) was added and the plates were read on a PerkinElmer TopCount NXT instrument. Counts were normalized to DMSO controls after background subtraction.

[1] = "sensitized" assay, read-out: IC50, inhibition of the kinase activity of IKKε
[2] = in-vitro IKKε kinase inhibition assays, given as 0.005 μM (5 nM), read-out: IKKε kinase inhibitory activity (IC50 value)

| SMILES | IC50 [1] [nM] | IC50 [2] [nM] |
| --- | --- | --- |
| C[C@@H](O)C(=O)N(C)Cc1ccc(Nc2nccc(-c3ccc(OC4CCOCC4)c(C#N)c3)n2)cn1 [Example Compound 198, (2R)-N-{[5-({4-[3-Cyano-4-(tetrahydro-2H-pyran-4-yloxy)phenyl]pyrimidin-2-yl}amino)pyridin-2-yl]methyl}-2-hydroxy-N-methylpropanamide] | < 5 |  |
| Cn1cc(-c2ccc(Nc3nccc(-c4ccc(OC5CCOCC5)c(C#N)c4)n3)cn2)cn1 [Example Compound 189, 5-(2-{[6-(1-Methyl-1H-pyrazol-4-yl)pyridin-3-yl]amino}pyrimidin-4-yl)-2-(tetrahydro-2H-pyran-4-yloxy)benzonitrile] | < 5 |  |
| CN(C)c1ccc(Nc2nccc(-c3ccc(OC4CCOCC4)c(C#N)c3)n2)cn1 [Example Compound 10, 5-(2-{[6-(Dimethylamino)pyridin-3-yl]amino}pyrimidin-4-yl)-2-(tetrahydro-2H-pyran-4-yloxy)benzonitrile] | < 5 | < 5 |
| C[C@H](O)C(=O)N1CCC(Oc2ccc(-c3ccnc(Nc4ccc(N5CCOCC5)nc4)n3)cc2C#N)CC1 [Example Compound 127, 2-({1-[(2S)-2-Hydroxypropanoyl]piperidin-4-yl}oxy)-5-(2-{[6-(morpholin-4-yl)pyridin-3-yl]amino}pyrimidin-4-yl)benzonitrile] | < 5 | < 5 |
| COC1CCN(c2cc(Nc3nccc(-c4ccc(OC5CCOCC5)c(C#N)c4)n3)ccn2)C1 (stereo not drawn) [Example Compound 39, 5-(2-{[2-(3-Methoxypyrrolidin-1-yl)pyridin-4-yl]amino}pyrimidin-4-yl)-2-(tetrahydro-2H-pyran-4-yloxy)benzonitrile] | < 5 | < 5 |
| N#Cc1cc(-c2ccnc(Nc3ccc(C(=O)N4CCN(CCO)CC4)s3)n2)ccc1OC1CCOCC1 [Example Compound 95, 5-{2-[(5-{[4-(2-Hydroxyethyl)piperazin-1-yl]carbonyl}thiophen-2-yl)amino]pyrimidin-4-yl}-2-(tetrahydro-2H-pyran-4-yloxy)benzonitrile] | < 5 | < 5 |
| COC1CN(Cc2cc(Nc3nccc(-c4ccc(OC5CCOCC5)c(C#N)c4)n3)ccn2)C1 [Example Compound 69, 5-[2-({2-[(3-Methoxyazetidin-1-yl)methyl]pyridin-4-yl}amino)pyrimidin-4-yl]-2-(tetrahydro-2H-pyran-4-yloxy)benzonitrile] |  | < 5 |
| COc1cc(Nc2nccc(-c3ccc(O[C@@H]4CCN(C(=O)CO)C4)c(C#N)c3)n2)ccn1 [Example Compound 121, 2-{[(3R)-1-(Hydroxyacetyl)pyrrolidin-3-yl]oxy}-5-{2-[(2-methoxypyridin-4-yl)amino]pyrimidin-4-yl}benzonitrile] |  | < 5 |
| COC(=O)c1cc(Nc2nccc(-c3ccc(OC4CCOCC4)c(C#N)c3)n2)ccn1 [Example Compound 36, Methyl 4-({4-[3-cyano-4-(tetrahydro-2H-pyran-4-yloxy)phenyl]pyrimidin-2-yl}amino)pyridine-2-carboxylate] |  | < 5 |
| COC1CN(c2cc(Nc3nccc(-c4ccc(NC(=O)C5CC5)c(C#N)c4)n3)ccn2)C1 [Example Compound 142, N-[2-Cyano-4-(2-{[2-(3-methoxyazetidin-1-yl)pyridin-4-yl]amino}pyrimidin-4-yl)phenyl]cyclopropanecarboxamide] | < 5 | < 5 |
| CC(O)c1ccc(Nc2nccc(-c3ccc(OC4CCOCC4)c(C#N)c3)n2)cn1 (stereo not drawn) [Example Compound 61, 5-(2-{[6-(1-Hydroxyethyl)pyridin-3-yl]amino}pyrimidin-4-yl)-2-(tetrahydro-2H-pyran-4-yloxy)benzonitrile] |  | < 5 |
| N#Cc1cc(-c2ccnc(Nc3ccc(-n4ccnc4)nc3)n2)ccc1OC1CCOCC1 [Example Compound 200, 5-(2-{[6-(1H-Imidazol-1-yl)pyridin-3-yl]amino}pyrimidin-4-yl)-2-(tetrahydro-2H-pyran-4-yloxy)benzonitrile] | < 5 |  |
| COc1cc(Nc2nccc(-c3ccc(OC4CCN(C(=O)CO)CC4)c(C#N)c3)n2)ccn1 [Example Compound 222, 2-{[1-(Hydroxyacetyl)piperidin-4-yl]oxy}-5-{2-[(2-methoxypyridin-4-yl)amino]pyrimidin-4-yl}benzonitrile] | < 5 |  |
| Cc1ccc(Nc2nccc(-c3ccc(OC4CCN(C(=O)CO)CC4)c(C#N)c3)n2)cn1 [Example Compound 221, 2-{[1-(Hydroxyacetyl)piperidin-4-yl]oxy}-5-{2-[(6-methylpyridin-3-yl)amino]pyrimidin-4-yl}benzonitrile] | < 5 |  |
| N#Cc1cc(-c2ccnc(Nc3ccc(N4CC(O)C4)nc3)n2)ccc1OC1CCOCC1 [Example Compound 46, 5-(2-{[6-(3-Hydroxyazetidin-1-yl)pyridin-3-yl]amino}pyrimidin-4-yl)-2-(tetrahydro-2H-pyran-4-yloxy)benzonitrile] |  | < 5 |
| Cc1ccc(Nc2nccc(-c3ccc(NC(=O)C4CC4)c(C#N)c3)n2)cn1 [Example Compound 149, N-(2-Cyano-4-{2-[(6-methylpyridin-3-yl)amino]pyrimidin-4-yl}phenyl)cyclopropanecarboxamide] | < 5 | < 5 |
| CC(c1ccc(Nc2nccc(-c3ccc(OC4CCOCC4)c(C#N)c3)n2)cn1)N1CC(O)C1 (stereo not drawn) [Example Compound 214, 5-[2-({6-[1-(3-Hydroxyazetidin-1-yl)ethyl]pyridin-3-yl}amino)pyrimidin-4-yl]-2-(tetrahydro-2H-pyran-4-yloxy)benzonitrile] | < 5 |  |
| Cc1cc(Nc2nccc(-c3ccc(O[C@@H]4CCN(C(=O)CO)C4)c(C#N)c3)n2)ccn1 [Example Compound 223, 2-{[(3R)-1-(Hydroxyacetyl)pyrrolidin-3-yl]oxy}-5-{2-[(2-methylpyridin-4-yl)amino]pyrimidin-4-yl}benzonitrile] | < 5 |  |
| N#Cc1cc(-c2ccnc(Nc3ccnc(CN4CCC(F)(F)C4)c3)n2)ccc1OC1CCOCC1 [Example Compound 220, 5-[2-({2-[(3,3-Difluoropyrrolidin-1-yl)methyl]pyridin-4-yl}amino)pyrimidin-4-yl]-2-(tetrahydro-2H-pyran-4-yloxy)benzonitrile] | < 5 |  |
| CN(Cc1ccc(Nc2nccc(-c3ccc(OC4CCOCC4)c(C#N)c3)n2)cn1)C(=O)CO [Example Compound 195, N-{[5-({4-[3-Cyano-4-(tetrahydro-2H-pyran-4-yloxy)phenyl]pyrimidin-2-yl}amino)pyridin-2-yl]methyl}-2-hydroxy-N-methylacetamide] | < 5 |  |
| CC(=O)c1ccc(Nc2nccc(-c3ccc(OC4CCOCC4)c(C#N)c3)n2)cn1 [Example Compound 62, 5-{2-[(6-Acetylpyridin-3-yl)amino]pyrimidin-4-yl}-2-(tetrahydro-2H-pyran-4-yloxy)benzonitrile] |  | < 5 |
| Cn1cc(-c2cc(Nc3nccc(-c4ccc(O[C@@H]5CCN(C(=O)CO)C5)c(C#N)c4)n3)ccn2)cn1 [Example Compound 204, 2-{[(3R)-1-(Hydroxyacetyl)pyrrolidin-3-yl]oxy}-5-(2-{[2-(1-methyl-1H-pyrazol-4-yl)pyridin-4-yl]amino}pyrimidin-4-yl)benzonitrile] | < 5 |  |
| N#Cc1cc(-c2ccnc(Nc3cncc(C(=O)NCCO)c3)n2)ccc1OC1CCOCC1 [Example Compound 13, 5-({4-[3-Cyano-4-(tetrahydro-2H-pyran-4-yloxy)phenyl]pyrimidin-2-yl}amino)-N-(2-hydroxyethyl)pyridine-3-carboxamide] |  | < 5 |
| N#Cc1cc(-c2ccnc(Nc3ccc(-c4cn[nH]c4)nc3)n2)ccc1OC1CCOCC1 [Example Compound 188, 5-(2-{[6-(1H-Pyrazol-4-yl)pyridin-3-yl]amino}pyrimidin-4-yl)-2-(tetrahydro-2H-pyran-4-yloxy)benzonitrile] | < 5 |  |
